This note sets out measurements from US7659299B2, “Compounds inhibiting the binding of sap for treating osteoarthritis” (Pentraxin Therapeutics Limited, priority 2003, dated 2010).

The experiment deals with SAP (Homo sapiens, UniProt P02743). Put plainly: Treatment of patients with osteoarthritis: plasma SAP concentration and joint symptoms. It is filed as in vivo. The note with it: patient. Also noted: 5 μl of radiolabelled SAP in TN; from tissue. The source says:
1) The patient, a person retired General Practitioner living in New Zealand, has a long history of bone and joint injuries, starting as a child on a farm and continuing as a teenager and then adult playing rugby and skiing. They have suffered from pain and swelling of previously damaged joints following manual work and especially in cold weather. The proximal interphalangeal joints of the left middle and right fourth fingers, the right elbow and the mid-thoracic intervertebral joints have been most affected. Symptoms and signs have progressively worsened over the past 22 years, so that their capacity for physical work had become very restricted and during winter they have required frequent or continuous treatment with non-steroidal anti-inflammatory drugs. These are all typical manifestations of osteoarthritis. In 2000 the discovery of impaired renal function led eventually to a second, and completely separate diagnosis of hereditary systemic amyloidosis caused by a mutation in the gene for fibrinogen A α-chain.
They started experimental treatment for their amyloidosis on 9 Oct. 2001 with (R)-1-[6-[(R)-2-Carboxy-pyrrolidin-1-yl]-6-oxo-hexanoyl]pyrrolidine-2-carboxylic acid, 10 mg b.d. by subcutaneous injection. […] This improvement was sustained and increased so that by April 2002, the autumn in New Zealand, it was impressively beyond doubt. Throughout that winter, for the first time in many years, […] no longer required treatment with non-steroidal anti-inflammatory drugs, despite increased physical activity. […] Over the past few months they have been doing regular hard physical work on the land, fencing and landscaping, including lifting and carrying significant weights, without suffering any of the pain and swelling that previously severely affected them even without the stress of unusual physical activity.
Their shoulders were painful, particularly when reaching up or behind their head, making drying their hair and some household tasks painful and difficult. […] They also experienced pain in their right wrist when performing some tasks, particularly opening jars, a manoeuvre that they found difficult. These symptoms are all compatible with osteoarthritis.
CD has hereditary systemic amyloidosis caused by a mutation in the gene for apolipoprotein AI, diagnosed in October 2001 during investigation of chronic renal impairment. […] They started experimental treatment for their amyloidosis on 22 Oct. 2001 with (R)-1-[6-[(R)-2-Carboxy-pyrrolidin-1-yl]-6-oxo-hexanoyl]pyrrolidine-2-carboxylic acid, 15 mg b.d. by subcutaneous injection. […] Treatment with (R)-1-[6-[(R)-2-Carboxy-pyrrolidin-1-yl]-6-oxo-hexanoyl]pyrrolidine-2-carboxylic acid finished in October 2002 and their remarkable remission has continued to the present (June 2003).

SAP, sequence (P02743 20-223): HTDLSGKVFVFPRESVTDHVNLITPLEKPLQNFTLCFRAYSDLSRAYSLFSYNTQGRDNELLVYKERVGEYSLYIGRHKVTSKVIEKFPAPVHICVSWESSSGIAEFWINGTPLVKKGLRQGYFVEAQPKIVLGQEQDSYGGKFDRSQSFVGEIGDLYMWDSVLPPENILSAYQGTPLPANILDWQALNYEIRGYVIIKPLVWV

Take `O=C(O)[C@H]1CCCN1C(=O)CCCCC(=O)N1CCC[C@@H]1C(=O)O` [Ro-63-8695, (R)-1-[6-[(R)-2-Carboxy-pyrrolidin-1-yl]-6-oxo-hexanoyl]pyrrolidine-2-carboxylic acid]: the “plasma SAP concentration reduced by” value by setting is: (10 mg b.d. subcutaneous injection, after three months) “over 95%”; (15 mg b.d. subcutaneous injection, after two months) “over 95%”. Also, the symptoms of osteoarthritis entry (10 mg b.d. subcutaneous injection, treatment Oct. 2001 to June 2003) is given as “remained in remission”. For the same compound, the “joint pain and function” value (15 mg b.d. subcutaneous injection, by January 2002 (start 22 Oct. 2001)) was “free of pain and had normal function of their joints”.
